# Experiments:
# c-Met = c-Met (Homo sapiens, UniProt P08581); experiment: c-Met kinase assay as described in WO 2005/030140 A2; assay type: biochemical; conditions: assays described in WO 2005/030140 A2
# Source text: (§1) Other utilities of this compound are further described in WO 2005/030140 A2.
# c-Kit = c-Kit (Homo sapiens, UniProt P10721); experiment: c-Kit kinase assay as described in WO 2005/030140 A2; assay type: biochemical; conditions: assays described in WO 2005/030140 A2
# Source text: as §1
# Chain of c-Kit (P10721 26-976): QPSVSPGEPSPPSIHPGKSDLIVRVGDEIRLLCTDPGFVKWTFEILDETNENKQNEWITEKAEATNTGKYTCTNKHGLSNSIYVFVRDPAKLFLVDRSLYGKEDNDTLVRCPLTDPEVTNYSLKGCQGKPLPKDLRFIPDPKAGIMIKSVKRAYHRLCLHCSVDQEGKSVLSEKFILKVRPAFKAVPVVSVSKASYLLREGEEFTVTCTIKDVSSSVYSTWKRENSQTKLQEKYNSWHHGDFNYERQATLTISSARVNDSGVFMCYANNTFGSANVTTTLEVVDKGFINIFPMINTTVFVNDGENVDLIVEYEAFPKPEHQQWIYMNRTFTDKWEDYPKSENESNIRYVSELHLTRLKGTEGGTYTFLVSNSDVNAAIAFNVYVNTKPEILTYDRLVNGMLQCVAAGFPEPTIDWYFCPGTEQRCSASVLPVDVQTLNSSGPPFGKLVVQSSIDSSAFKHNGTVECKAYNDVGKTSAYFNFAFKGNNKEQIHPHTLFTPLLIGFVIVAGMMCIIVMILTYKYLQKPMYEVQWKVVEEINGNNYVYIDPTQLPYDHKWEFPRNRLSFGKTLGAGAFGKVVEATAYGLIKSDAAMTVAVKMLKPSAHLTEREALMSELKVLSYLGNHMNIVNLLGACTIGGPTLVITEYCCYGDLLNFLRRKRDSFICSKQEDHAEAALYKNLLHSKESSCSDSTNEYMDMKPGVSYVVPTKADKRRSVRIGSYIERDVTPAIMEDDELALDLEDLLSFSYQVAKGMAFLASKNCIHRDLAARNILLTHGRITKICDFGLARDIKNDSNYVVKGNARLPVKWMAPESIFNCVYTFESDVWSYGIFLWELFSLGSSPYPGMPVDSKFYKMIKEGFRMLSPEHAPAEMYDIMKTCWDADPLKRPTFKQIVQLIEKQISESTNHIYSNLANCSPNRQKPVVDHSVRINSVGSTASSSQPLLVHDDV
# Chain of c-Met (P08581 25-1390): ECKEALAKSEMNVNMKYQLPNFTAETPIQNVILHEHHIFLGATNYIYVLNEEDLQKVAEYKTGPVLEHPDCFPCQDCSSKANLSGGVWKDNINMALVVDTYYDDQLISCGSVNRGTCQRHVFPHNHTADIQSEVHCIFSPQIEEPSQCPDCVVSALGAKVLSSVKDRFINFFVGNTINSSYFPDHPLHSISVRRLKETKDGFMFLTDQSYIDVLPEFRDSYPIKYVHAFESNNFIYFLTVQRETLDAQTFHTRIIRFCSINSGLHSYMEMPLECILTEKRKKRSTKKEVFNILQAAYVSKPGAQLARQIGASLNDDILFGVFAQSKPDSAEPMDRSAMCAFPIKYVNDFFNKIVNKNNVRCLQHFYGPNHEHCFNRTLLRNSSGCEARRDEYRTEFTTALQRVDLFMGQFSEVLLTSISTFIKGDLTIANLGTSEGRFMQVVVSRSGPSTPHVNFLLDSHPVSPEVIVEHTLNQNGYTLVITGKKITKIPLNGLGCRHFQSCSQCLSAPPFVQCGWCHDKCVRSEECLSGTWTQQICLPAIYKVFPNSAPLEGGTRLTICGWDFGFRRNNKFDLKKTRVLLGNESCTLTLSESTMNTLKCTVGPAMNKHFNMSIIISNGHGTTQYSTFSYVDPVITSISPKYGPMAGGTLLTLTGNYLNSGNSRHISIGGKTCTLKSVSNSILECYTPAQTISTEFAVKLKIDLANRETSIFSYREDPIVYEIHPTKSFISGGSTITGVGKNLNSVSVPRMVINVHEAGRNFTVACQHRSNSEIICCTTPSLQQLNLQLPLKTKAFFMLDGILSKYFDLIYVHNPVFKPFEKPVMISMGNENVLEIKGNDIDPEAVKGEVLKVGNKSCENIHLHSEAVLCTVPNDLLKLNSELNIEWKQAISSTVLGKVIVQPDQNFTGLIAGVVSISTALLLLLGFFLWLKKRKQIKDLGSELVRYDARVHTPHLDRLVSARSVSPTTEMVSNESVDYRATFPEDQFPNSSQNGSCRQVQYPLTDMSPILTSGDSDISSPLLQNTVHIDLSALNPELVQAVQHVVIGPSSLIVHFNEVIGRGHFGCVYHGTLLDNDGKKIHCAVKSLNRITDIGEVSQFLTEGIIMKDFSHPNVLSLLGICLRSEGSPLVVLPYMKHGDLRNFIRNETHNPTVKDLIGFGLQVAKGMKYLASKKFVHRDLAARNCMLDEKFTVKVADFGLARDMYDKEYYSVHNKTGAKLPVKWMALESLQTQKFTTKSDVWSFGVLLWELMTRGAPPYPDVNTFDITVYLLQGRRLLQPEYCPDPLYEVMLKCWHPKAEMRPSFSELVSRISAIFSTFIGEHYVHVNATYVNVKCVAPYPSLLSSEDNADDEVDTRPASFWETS
compound,measurement,setting,value
"COc1cc2c(Oc3ccc(NC(=O)C(=O)NCCc4ccccc4)cc3F)ccnc2cc1OCCCN1CCOCC1 [title compound, N-{3-Fluoro-4-[6-methoxy-7-(3-morpholin-4-yl-propoxy)-quinolin-4-yloxy]-phenyl}-N′-phenethyl-oxalamide]",IC50,c-Met,< 50 nM
same,IC50,c-Kit,< 50 nM
